20 compounds from patent US20170044100A1, “INHIBITORS OF DRUG-RESISTANT MYCOBACTERIUM TUBERCULOSIS” (THE JOHNS HOPKINS UNIVERSITY, priority 2014, published 2017) can be followed below.

The subject of one assay is M. tuberculosis strain H37Rv. Put plainly: microbe, parasite or virus in culture. The arrangement: MICMABA: unit not given here. The class given is cell-based, Mycobacterium tuberculosis.
Conditions: not given
`Cc1cc(C)c2cc(C(=O)NC3CCN(C)CC3)[nH]c2c1` [Compound 7, N-(1-Methyl-4-piperidinyl)-4,6-dimethyl-1H-indole-2-carboxamide] displayed an MICMABA of 128.

With `Cc1cc(C)c2cc(C(=O)N3CCCCC3)[nH]c2c1` [Compound 17, (4,6-Dimethyl-11-1-indo1-2-yl)(piperidin-1-yl)methanone], the MIC is >499 µM.

The assay is the same for the next values; noted with them: H37Rv MIC relative to 1h.
As to `O=C(NC1CCCCCCC1)c1cc2c(F)cc(F)cc2[nH]1` [Compound 29, N-Cyclooctyl-4,6-difluoro-1H-indole-2-carboxamide], the “activity in comparison to the 4,6-dimethyl analog (1h)” value amounted to 8 fold.

Staying with this assay, now noted: H37Rv; MABA; Table 9.
As to `Cc1cc(C)c2c(C(=O)NC34CC5CC(CC(C5)C3)C4)c[nH]c2c1` [Compound 43, N-(1-Adamantyl)-4,6-dimethyl-1H-indole-3-carboxamide], the MICMABA is >64.

In turn, `Cc1cc(C)c2cc(C(=O)NC3CCN(C(C)C)CC3)[nH]c2c1` [Compound 8, N-(1-Isopropyl-4-piperidinyl)-4,6-dimethyl-1H-indole-2-carboxamide] yielded an MICMABA of 64.

“N-(2,3,5 -methyl, 4-dimethyl)-6-bromo-1H-indole-2-carboxamide [BB]”: the MICMABA is on record as 0.0039- 0.0078.

On to `Cc1cc(C)c2c(C(=O)NC3CCCCCCC3)c[nH]c2c1` [Compound 42, N-Cyclooctyl-4,6-dimethyl-1H-indole-3-carboxamide], for which the MICMABA is on record as >64.

`O=C(NC1CCCCCCC1)c1cc2c(F)cc(F)cc2[nH]1` [Compound 29, N-Cyclooctyl-4,6-difluoro-1H-indole-2-carboxamide] gave an MICMABA of 0.031.

`Cc1cc(C)c2c(C(=O)NC3CCCCCC3)c[nH]c2c1` [Compound 41, N-Cycloheptyl-4,6-dimethyl-1H-indole-3-carboxamide]: the MICMABA was >64.

On to `O=C(NC1CCCCCCC1)c1cc2c(Cl)cc(Cl)cc2[nH]1` [Compound 70, N-Cyclooctyl-4,6-dichloro-1H-indole-2-carboxamide], for which the MICMABA came out at 0.0039.

In turn, `Cc1cc(C)c2cc(C(=O)NC3CCCN(C)CC3)[nH]c2c1` (stereo not drawn) [Compound 9, N-(1-Methyl-4-azepanyl)-4,6-dimethyl-1H-indole-2-carboxamide] had an MICMABA of 128.

For `Cc1cc(C)c2c(C(=O)NC3C4CC5CC(C4)CC3C5)c[nH]c2c1` (stereo not drawn) [Compound 44, N-(2-Adamantyl)-4,6-dimethyl-1H-indole-3-carboxamide], the MICMABA is on record as >64.

The assay is the same for the next values; noted with them: Mycobacterium tuberculosis, H37RV.
Compound `Cc1cc(C)c2cc(C(=O)NC3CCN(C)CC3)[nH]c2c1` [Compound 7, N-(1-Methyl-4-piperidinyl)-4,6-dimethyl-1H-indole-2-carboxamide] had an MIC of 448 µM.

Compound `Cc1cc(C)c2cc(C(=O)NC3CCN(C(C)C)CC3)[nH]c2c1` [Compound 8, N-(1-Isopropyl-4-piperidinyl)-4,6-dimethyl-1H-indole-2-carboxamide] gave an MIC of 204 µM.

`Cc1cc(C)c2cc(C(=O)NC3CCCN(C)CC3)[nH]c2c1` (stereo not drawn) [Compound 9, N-(1-Methyl-4-azepanyl)-4,6-dimethyl-1H-indole-2-carboxamide] yielded an MIC of 428 µM.

The same assay, now with this note: Mycobacterium tuberculosis, H37RV, read-out: MIC for H37Rv.
Take `NC[C@H]1O[C@H](O[C@H]2[C@H](O)[C@@H](O[C@H]3O[C@H](CO)[C@@H](O)[C@H](N)[C@H]3O)[C@H](N)C[C@@H]2N)[C@H](O)[C@@H](O)[C@@H]1O` [Kanamycin, reference compound]: the MIC stood at 2 µg/mL.

`CO[C@H]1/C=C/O[C@@]2(C)Oc3c(C)c(O)c4c(O)c(c(/C=N/N5CCN(C)CC5)c(O)c4c3C2=O)NC(=O)/C(C)=C\C=C\[C@H](C)[C@H](O)[C@@H](C)[C@@H](O)[C@@H](C)[C@H](OC(C)=O)[C@@H]1C` [Rifampin]: the MIC came to 0.125 µg/mL.

Still in this assay, the particulars now being: Mycobacterium tuberculosis; parental H37Rv strain; read-out: MIC for H37Rv.
Take `NCC[C@H](O)C(=O)N[C@@H]1C[C@H](N)[C@@H](O[C@H]2O[C@H](CN)[C@@H](O)[C@H](O)[C@H]2O)[C@H](O)[C@H]1O[C@H]1O[C@H](CO)[C@@H](O)[C@H](N)[C@H]1O` [Amikacin]: the MIC came to 1 µg/mL.

For `CC(C)=CCC/C(C)=C/CNCCNC1C2CC3CC(C2)CC1C3` (stereo not drawn) [SQ109], the MIC was found to be 0.25 µg/mL.

For the compound `CC[C@@H](CO)NCCN[C@@H](CC)CO` [Ethambutol], the MIC stood at 1 µg/mL.

For `C[C@H]1COc2c(N3CCN(C)CC3)c(F)cc3c(=O)c(C(=O)O)cn1c23` [Levofloxacin, reference compound], the MIC is 0.25 µg/mL.

`COc1c(N2C[C@@H]3CCCN[C@@H]3C2)c(F)cc2c(=O)c(C(=O)O)cn(C3CC3)c12` [Moxifloxacin, reference compound]: the MIC fell in the range of 0.0625 to 0.125 µg/mL.

The assay is the same for the next values; noted with them: parental H37Rv strain.
With BM212, the “MIC for H37Rv” value came to 2 µg/mL.

For Capreomycin, the “MIC for H37Rv” value is 1 µg/mL.
